Reference: patent US9932314B2, “Pyrazole compounds and their use as T-type calcium channel blockers” (IDORSIA PHARMACEUTICALS LTD, priority 2015, dated 2018)

Target: T1, voltage-dependent T-type calcium channel subunit alpha-1G (Cav3.2) (Homo sapiens, UniProt O95180)
T1 construct: expressed in transfected cells; host or cells: HEK293
Experiment: FLIPR calcium flux assay, HEK293 cells recombinantly expressing Cav3.2
Format: cell-based
Settings: Cav3.2-channel, Fluo-4-AM, 3 min incubation, stimulation with 10 mM CaCl2
Procedure, shortened: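 Calcium influx was triggered by adding CaCl2 to 10 mM final, 3 min after compounds in tetraethylammonium-based buffer, pH 7.2, reached Fluo-4-AM-loaded recombinant HEK293 cells. The integrated kinetic fluorescence signal per concentration gave concentration-response curves by non-linear sigmoidal regression.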

T1 sequence (O95180 whole entry): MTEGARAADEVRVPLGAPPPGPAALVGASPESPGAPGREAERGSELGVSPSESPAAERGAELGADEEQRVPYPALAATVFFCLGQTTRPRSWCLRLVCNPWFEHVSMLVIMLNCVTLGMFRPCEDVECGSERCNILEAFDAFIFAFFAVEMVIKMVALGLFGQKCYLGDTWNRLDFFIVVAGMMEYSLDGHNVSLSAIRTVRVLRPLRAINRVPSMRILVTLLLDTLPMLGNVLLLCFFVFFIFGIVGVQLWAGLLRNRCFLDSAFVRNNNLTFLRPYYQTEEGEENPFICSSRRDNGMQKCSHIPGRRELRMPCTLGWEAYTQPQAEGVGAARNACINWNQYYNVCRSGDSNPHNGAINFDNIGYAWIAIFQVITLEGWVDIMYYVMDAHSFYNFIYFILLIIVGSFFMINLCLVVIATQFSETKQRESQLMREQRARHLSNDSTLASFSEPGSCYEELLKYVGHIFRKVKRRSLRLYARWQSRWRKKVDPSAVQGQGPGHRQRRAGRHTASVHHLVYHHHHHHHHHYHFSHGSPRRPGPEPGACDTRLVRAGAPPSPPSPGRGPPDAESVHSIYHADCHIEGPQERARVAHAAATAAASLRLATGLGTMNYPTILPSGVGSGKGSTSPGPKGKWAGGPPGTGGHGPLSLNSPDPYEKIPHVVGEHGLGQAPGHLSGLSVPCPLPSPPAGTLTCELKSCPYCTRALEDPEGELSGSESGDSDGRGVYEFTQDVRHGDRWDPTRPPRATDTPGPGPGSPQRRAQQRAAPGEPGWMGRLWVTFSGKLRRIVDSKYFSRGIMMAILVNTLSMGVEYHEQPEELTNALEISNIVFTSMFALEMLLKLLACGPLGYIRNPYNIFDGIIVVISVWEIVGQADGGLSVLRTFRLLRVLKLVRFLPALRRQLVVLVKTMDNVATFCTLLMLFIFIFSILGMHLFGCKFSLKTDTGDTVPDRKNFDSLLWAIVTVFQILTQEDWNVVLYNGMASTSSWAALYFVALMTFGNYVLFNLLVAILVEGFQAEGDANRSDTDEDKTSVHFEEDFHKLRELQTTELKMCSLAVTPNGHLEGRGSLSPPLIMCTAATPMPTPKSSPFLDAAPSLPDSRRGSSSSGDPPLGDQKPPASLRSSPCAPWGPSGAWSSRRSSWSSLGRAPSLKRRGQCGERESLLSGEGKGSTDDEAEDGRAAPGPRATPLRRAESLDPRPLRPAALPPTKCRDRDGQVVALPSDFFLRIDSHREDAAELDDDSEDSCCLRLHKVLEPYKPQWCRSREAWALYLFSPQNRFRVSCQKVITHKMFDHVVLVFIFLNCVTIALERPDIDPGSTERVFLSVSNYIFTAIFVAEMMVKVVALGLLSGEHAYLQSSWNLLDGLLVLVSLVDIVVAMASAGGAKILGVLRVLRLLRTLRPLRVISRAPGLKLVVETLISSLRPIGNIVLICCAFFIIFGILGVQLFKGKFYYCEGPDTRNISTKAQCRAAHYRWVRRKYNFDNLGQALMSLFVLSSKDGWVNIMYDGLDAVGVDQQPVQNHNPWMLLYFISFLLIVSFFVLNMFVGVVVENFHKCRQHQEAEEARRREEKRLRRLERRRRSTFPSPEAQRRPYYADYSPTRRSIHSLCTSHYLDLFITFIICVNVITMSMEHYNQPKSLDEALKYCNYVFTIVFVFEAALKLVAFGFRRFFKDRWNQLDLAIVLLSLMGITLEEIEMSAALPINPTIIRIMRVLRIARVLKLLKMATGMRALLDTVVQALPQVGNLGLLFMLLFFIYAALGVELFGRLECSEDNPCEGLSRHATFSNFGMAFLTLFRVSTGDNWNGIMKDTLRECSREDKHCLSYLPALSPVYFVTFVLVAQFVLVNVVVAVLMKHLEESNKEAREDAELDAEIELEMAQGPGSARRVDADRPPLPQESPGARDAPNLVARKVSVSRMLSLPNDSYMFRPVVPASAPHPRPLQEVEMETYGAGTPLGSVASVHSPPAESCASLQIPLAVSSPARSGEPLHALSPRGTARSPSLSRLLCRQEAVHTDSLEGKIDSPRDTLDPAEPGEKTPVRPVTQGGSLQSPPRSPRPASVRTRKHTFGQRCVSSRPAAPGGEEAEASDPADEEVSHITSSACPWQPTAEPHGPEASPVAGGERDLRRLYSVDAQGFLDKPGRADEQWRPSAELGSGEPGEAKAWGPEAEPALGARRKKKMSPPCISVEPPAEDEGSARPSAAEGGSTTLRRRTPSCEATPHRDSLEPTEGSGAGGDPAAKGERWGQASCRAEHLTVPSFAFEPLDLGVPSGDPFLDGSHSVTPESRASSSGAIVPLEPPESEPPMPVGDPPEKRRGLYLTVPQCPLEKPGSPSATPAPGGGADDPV

| IC50 [nM] | SMILES |
| --- | --- |
| 91 | Cc1cn(C)c2ncc(CC(=O)Nc3ccn(Cc4ccc(F)c(C#N)c4)n3)cc12 [Example 321, N-[1-(3-Cyano-4-fluoro-benzyl)-1H-pyrazol-3-yl]-2-(1,3-dimethyl-1H-pyrrolo[2,3-b]pyridin-5-yl)-acetamide] |
| 856 | Cc1cn(C)c2ncc(CC(=O)Nc3ccn(Cc4ccc(C#N)cn4)n3)cc12 [Example 322, N-[1-(5-Cyano-pyridin-2-ylmethyl)-1H-pyrazol-3-yl]-2-(1,3-dimethyl-1H-pyrrolo[2,3-b]pyridin-5-yl)-acetamide] |
| 36 | Cn1cc(C2CCC2)c2cc(CC(=O)Nc3ccn(Cc4ccc(C#N)cn4)n3)ccc21 [Example 323, N-[1-(5-Cyano-pyridin-2-ylmethyl)-1H-pyrazol-3-yl]-2-(3-cyclobutyl-1-methyl-1H-indol-5-yl)-acetamide] |
| 31 | CC(C)c1cn(C)c2ccc(CC(=O)Nc3ccn(Cc4ccc(C#N)cn4)n3)cc12 [Example 324, N-[1-(5-Cyano-pyridin-2-ylmethyl)-1H-pyrazol-3-yl]-2-(3-isopropyl-1-methyl-1H-indol-5-yl)-acetamide] |
| 893 | Cn1cc(C#N)c2cc(CC(=O)Nc3ccn(Cc4ccc(C#N)cn4)n3)ccc21 [Example 325, 2-(3-Cyano-1-methyl-1H-indol-5-yl)-N-[1-(5-cyano-pyridin-2-ylmethyl)-1H-pyrazol-3-yl]-acetamide] |
| 33 | Cn1cc(C(F)(F)F)c2cc(CC(=O)Nc3ccn(Cc4ccc(C#N)cn4)n3)ccc21 [Example 326, N-[1-(5-Cyano-pyridin-2-ylmethyl)-1H-pyrazol-3-yl]-2-(1-methyl-3-trifluoromethyl-1H-indol-5-yl)-acetamide] |
| 37 | Cn1cc(C2CCC2)c2cc(CC(=O)Nc3ccn(Cc4ccc(F)c(C#N)c4)n3)ccc21 [Example 327, N-[1-(3-Cyano-4-fluoro-benzyl)-1H-pyrazol-3-yl]-2-(3-cyclobutyl-1-methyl-1H-indol-5-yl)-acetamide] |
| 33 | CC(C)c1cn(C)c2ccc(CC(=O)Nc3ccn(Cc4ccc(F)c(C#N)c4)n3)cc12 [Example 328, N-[1-(3-Cyano-4-fluoro-benzyl)-1H-pyrazol-3-yl]-2-(3-isopropyl-1-methyl-1H-indol-5-yl)-acetamide] |
| 80 | Cn1cc(C#N)c2cc(CC(=O)Nc3ccn(Cc4ccc(F)c(C#N)c4)n3)ccc21 [Example 329, N-[1-(3-Cyano-4-fluoro-benzyl)-1H-pyrazol-3-yl]-2-(3-cyano-1-methyl-1H-indol-5-yl)-acetamide] |
| 4.8 | Cc1cn(C)c2cc(CC(=O)Nc3ccn(Cc4ccc(F)c(C#N)c4)n3)ccc12 [Example 330, N-[1-(3-Cyano-4-fluoro-benzyl)-1H-pyrazol-3-yl]-2-(1,3-dimethyl-1H-indol-6-yl)-acetamide] |
| 9.6 | Cc1cn(C)c2cc(CC(=O)Nc3ccn(Cc4ccc(C#N)cn4)n3)ccc12 [Example 331, N-[1-(5-Cyano-pyridin-2-ylmethyl)-1H-pyrazol-3-yl]-2-(1,3-dimethyl-1H-indol-6-yl)-acetamide] |
| 600 | N#Cc1cc(Cn2ccc(NC(=O)Cc3ccc(F)cc3OCC(F)(F)F)n2)ccc1F [Example 332, N-[1-(3-Cyano-4-fluoro-benzyl)-1H-pyrazol-3-yl]-2-[4-fluoro-2-(2,2,2-trifluoro-ethoxy)-phenyl]-acetamide] |
| 2790 | N#Cc1ccc(Cn2ccc(NC(=O)Cc3ccc(F)cc3OCC(F)(F)F)n2)nc1 [Example 333, N-[1-(5-Cyano-pyridin-2-ylmethyl)-1H-pyrazol-3-yl]-2-[4-fluoro-2-(2,2,2-trifluoro-ethoxy)-phenyl]-acetamide] |
| 21 | N#Cc1cc(Cn2ccc(NC(=O)Cc3ccc(S(F)(F)(F)(F)F)cc3)n2)ccc1F [Example 334, N-(1-(3-cyano-4-fluorobenzyl)-1H-pyrazol-3-yl)-2-(4-(pentafluoro-λ^6-sulfanyl)phenyl)acetamide] |
| 20 | CC(C)(C#N)c1ccc(CC(=O)Nc2ccn(Cc3ccc(F)c(C#N)c3)n2)cc1 [Example 335, 2-[4-(Cyano-dimethyl-methyl)-phenyl]-N-[1-(3-cyano-4-fluoro-benzyl)-1H-pyrazol-3-yl]-acetamide] |
| 34 | N#Cc1ccc(Cn2ccc(NC(=O)Cc3ccc(S(F)(F)(F)(F)F)cc3)n2)nc1 [Example 336, N-(1-((5-cyanopyridin-2-yl)methyl)-1H-pyrazo1-3-yl)-2-(4-(pentafluoro-λ^6-sulfanyl)phenyl)acetamide] |
| 168 | CC(C)(C#N)c1ccc(CC(=O)Nc2ccn(Cc3ccc(C#N)cn3)n2)cc1 [Example 337, 2-[4-(Cyano-dimethyl-methyl)-phenyl]-N-[1-(5-cyano-pyridin-2-ylmethyl)-1H-pyrazol-3-yl]-acetamide] |
| 61 | N#Cc1ccc(Cn2ccc(NC(=O)Cc3ccc(C(F)(F)F)cc3)n2)nc1 [Example 338, N-[1-(5-Cyano-pyridin-2-ylmethyl)-1H-pyrazol-3-yl]-2-(4-trifluoromethyl-phenyl)-acetamide] |

| IC50 [nM] | SMILES |
| --- | --- |
| 8.5 | N#Cc1cc(Cn2ccc(NC(=O)Cc3cnc(N4CCCC4)c(F)c3)n2)ccc1F [Example 340, N-[1-(3-Cyano-4-fluoro-benzyl)-1H-pyrazol-3-yl]-2-(5-fluoro-6-pyrrolidin-1-yl-pyridin-3-yl)-acetamide] |
| 64 | N#Cc1ccc(Cn2ccc(NC(=O)Cc3cnc(N4CCCC4)c(F)c3)n2)nc1 [Example 341, N-[1-(5-Cyano-pyridin-2-ylmethyl)-1H-pyrazol-3-yl]-2-(5-fluoro-6-pyrrolidin-1-yl-pyridin-3-yl)-acetamide] |
| 40 | N#Cc1cc(Cn2ccc(NC(=O)Cc3ccc(C(F)(F)F)cc3)n2)ccc1F [Example 342, N-[1-(3-Cyano-4-fluoro-benzyl)-1H-pyrazol-3-yl]-2-(4-trifluoromethyl-phenyl)-acetamide] |
| 4.5 | Cc1cc(CC(=O)Nc2ccn(Cc3ccc(F)c(C#N)c3)n2)ccc1OCC(F)(F)F [Example 343, N-[1-(3-Cyano-4-fluoro-benzyl)-1H-pyrazol-3-yl]-2-[3-methyl-4-(2,2,2-trifluoro-ethoxy)-phenyl]-acetamide] |
| 52 | Cn1ncc2cc(CC(=O)Nc3ccn(Cc4cc(F)c(C#N)c(F)c4)n3)ccc21 [Example 344, N-[1-(4-Cyano-3,5-difluoro-benzyl)-1H-pyrazol-3-yl]-2-(1-methyl-1H-indazol-5-yl)-acetamide] |
| 159 | Cn1ncc2ccc(CC(=O)Nc3ccn(Cc4cc(F)c(C#N)c(F)c4)n3)cc21 [Example 346, N-[1-(4-Cyano-3,5-difluoro-benzyl)-1H-pyrazol-3-yl]-2-(1-methyl-1H-indazol-6-yl)-acetamide] |
| 85 | N#Cc1c(F)cc(Cn2ccc(NC(=O)Cc3ccc(C4(F)COC4)cc3)n2)cc1F [Example 347, N-[1-(4-Cyano-3,5-difluoro-benzyl)-1H-pyrazol-3-yl]-2-[4-(3-fluoro-oxetan-3-yl)-phenyl]-acetamide] |
| 29 | Cc1nn(C)c2ccc(CC(=O)Nc3ccn(Cc4cc(F)c(C#N)c(F)c4)n3)cc12 [Example 348, N-[1-(4-Cyano-3,5-difluoro-benzyl)-1H-pyrazol-3-yl]-2-(1,3-dimethyl-1H-indazol-5-yl)-acetamide] |
| 23 | N#Cc1c(F)cc(Cn2ccc(NC(=O)Cc3ccc(N4CCC(F)(F)C4)nc3)n2)cc1F [Example 349, N-[1-(4-Cyano-3,5-difluoro-benzyl)-1H-pyrazol-3-yl]-2-[6-(3,3-difluoro-pyrrolidin-1-yl)-pyridin-3-yl]-acetamide] |
| 69 | N#Cc1c(F)cc(Cn2ccc(NC(=O)Cc3ccc(C4(C(F)(F)F)CC4)cc3)n2)cc1F [Example 350, N-[1-(4-Cyano-3,5-difluoro-benzyl)-1H-pyrazol-3-yl]-2-[4-(1-trifluoromethyl-cyclopropyl)-phenyl]-acetamide] |
| 65 | N#Cc1c(F)cc(Cn2ccc(NC(=O)Cc3ccc(N4CCCC4)nc3)n2)cc1F [Example 351, N-[1-(4-Cyano-3,5-difluoro-benzyl)-1H-pyrazol-3-yl]-2-(6-pyrrolidin-1-yl-pyridin-3-yl)-acetamide] |
| 22 | CC(C)(C)c1ccc(CC(=O)Nc2ccn(Cc3cc(F)c(C#N)c(F)c3)n2)cc1 [Example 352, 2-(4-tert-Butyl-phenyl)-N-[1-(4-cyano-3,5-difluoro-benzyl)-1H-pyrazol-3-yl]-acetamide] |
| 30 | CC(C)c1ccc(CC(=O)Nc2ccn(Cc3cc(F)c(C#N)c(F)c3)n2)cc1 [Example 353, N-[1-(4-Cyano-3,5-difluoro-benzyl)-1H-pyrazol-3-yl]-2-(4-isopropyl-phenyl)-acetamide] |
| 248 | N#Cc1ccc(Cn2ccc(NC(=O)Cc3ccc(C4(C#N)CC4)cc3)n2)nc1 [Example 354, 2-[4-(1-Cyano-cyclopropyl)-phenyl]-N-[1-(5-cyano-pyridin-2-ylmethyl)-1H-pyrazol-3-yl]-acetamide] |
| 26 | N#Cc1cc(Cn2ccc(NC(=O)Cc3ccc(C4(C#N)CC4)cc3)n2)ccc1F [Example 355, 2-[4-(1-Cyano-cyclopropyl)-phenyl]-N-[1-(3-cyano-4-fluoro-benzyl)-1H-pyrazol-3-yl]-acetamide] |
| 327 | N#Cc1ccc(Cn2ccc(NC(=O)Cc3ccc(C4(O)CC4)cc3)n2)nc1 [Example 356, N-[1-(5-Cyano-pyridin-2-ylmethyl)-1H-pyrazol-3-yl]-2-[4-(1-hydroxy-cyclopropyl)-phenyl]-acetamide] |
| 34 | CCn1ncc2cc(CC(=O)Nc3ccn(Cc4cc(F)c(C#N)c(F)c4)n3)ccc21 [Example 357, N-[1-(4-Cyano-3,5-difluoro-benzyl)-1H-pyrazol-3-yl]-2-(1-ethyl-1H-indazol-5-yl)-acetamide] |
| 20 | Cc1cn(C)c2ccc(CC(=O)Nc3ccn(Cc4cc(F)c(C#N)c(F)c4)n3)cc12 [Example 358, N-[1-(4-Cyano-3,5-difluoro-benzyl)-1H-pyrazol-3-yl]-2-(1,3-dimethyl-1H-indol-5-yl)-acetamide] |
